{"source": "patent US20160202261A1", "about": "(priority 2011, published 2016)", "key": {"[1]": {"test_system": "VASP Ser157 and Ser239 phosphorylation in T84 and HCT116 colon cancer cells", "type": "cell-based, human"}, "[2]": {"test_system": "T84 human colon carcinoma cells", "type": "cell-based"}}}
{"smiles": "Nc1nc2c(nc(Br)n2[C@@H]2O[C@@H]3COP(=O)(O)O[C@H]3[C@H]2O)c(=O)[nH]1", "note": "[8-br-cGMP]", "values": [{"measurement": "VASP phosphorylation at Ser157 and Ser239", "setting": "[1]", "result": "mimicked"}, {"measurement": "Filopodia frequency and length", "setting": "[2]", "result": "impaired"}]}
